Molecular target: hSTING (Homo sapiens, UniProt Q86WV6)
Assay: STING reporter assay in THP1-Dual KO-IFNAR2 cells (2′3′cGAMP stimulation, luciferase reporter)
Type: cell-based
Details: 15 μM 2′3′cGAMP, 24 h, luciferase reporter activity
Protocol: STING pathway activation by the compounds described herein was measured using THP1-Dual™ cells (KO-IFNAR2).
THP1-Dual™ KO-IFNAR2 Cells (obtained from invivogen) were maintained in RPMI, 10% FCS, 5 ml P/S, 2 mM L-glut, 10 mM Hepes, and 1 mM sodium pyruvate. Compounds were spotted in empty 384 well tissue culture plates (Greiner 781182) by Echo for a final concentration of 0.0017-100 μM. Cells were plated into the TC plates at 40 μL per well, 2×10E6 cells/mL. For activation with STING ligand, 2′3′cGAMP (MW 718.38, obtained from Invivogen), was prepared in Optimem media.
The following solutions were prepared for each 1×384 plate: • Solution A: 2 mL Optimem with one of the following stimuli: • 60 μL of 10 mM 2′3′cGAMP→150 μM stock • Solution B: 2 mL Optimem with 60 μL Lipofectamine 2000→Incubate 5 min at RT
2 mL of solution A and 2 ml Solution B was mixed and incubated for 20 min at room temperature (RT). 20 μL of transfection solution (A+B) was added on top of the plated cells, with a final 2′3′cGAMP concentration of 15 μM. The plates were then centrifuged immediately at 340 g for 1 minute, after which they were incubated at 37° C., 5% CO2, >98% humidity for 24 h. Luciferase reporter activity was then measured. EC50 values were calculated by using standard methods known in the art.
Luciferase reporter assay: 10 μL of supernatant from the assay was transferred to white 384-plate with flat bottom and squared wells. One pouch of QUANTI-Luc™ Plus was dissolved in 25 mL of water. 100 μL of QLC Stabilizer per 25 mL of QUANTI-Luc™ Plus solution was added. 50 μL of QUANTI-Luc™ Plus/QLC solution per well was then added. Luminescence was measured on a Platereader (e.g., Spectramax I3X (Molecular Devices GF3637001)).
Luciferase reporter activity was then measured. EC50 values were calculated by using standard methods known in the art.

Sequence of hSTING (Q86WV6 whole entry R71H/G230A/H232R/R293Q, form open): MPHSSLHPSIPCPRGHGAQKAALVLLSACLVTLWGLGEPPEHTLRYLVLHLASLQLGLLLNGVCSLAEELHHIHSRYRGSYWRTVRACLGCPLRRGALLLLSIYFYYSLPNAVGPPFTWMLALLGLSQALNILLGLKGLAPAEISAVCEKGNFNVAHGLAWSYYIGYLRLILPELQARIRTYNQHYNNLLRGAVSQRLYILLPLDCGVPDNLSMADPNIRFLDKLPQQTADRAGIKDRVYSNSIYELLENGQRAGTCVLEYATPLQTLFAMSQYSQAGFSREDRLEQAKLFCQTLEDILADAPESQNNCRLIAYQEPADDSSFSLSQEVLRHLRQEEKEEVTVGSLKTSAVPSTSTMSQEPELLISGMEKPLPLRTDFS

Structure (SMILES) | EC50 [nM]
CCc1ccc(-n2cc(-c3ccc4[nH]cc(NC(=O)NC5CCCC5)c4c3)cn2)cc1 [Compound 120, 1-cyclopentyl-3-(5-(1-(4-ethylphenyl)-1H-pyrazol-4-yl)-1H-indol-3-yl)urea] | 200 to 1000
CCc1ccc(-n2cc(-c3ccc4[nH]cc(NC(=O)NCCC(F)(F)F)c4c3)cn2)cc1 [Compound 114, 1-(5-(1-(4-ethylphenyl)-1H-pyrazol-4-yl)-1H-indol-3-yl)-3-(3,3,3-trifluoropropyl)urea] | 40 to 200
O=C(NCC1CC1)Nc1c[nH]c2ccc(-c3cnn(Cc4ccc(C(F)(F)F)cc4)c3)cc12 [Compound 103, 1-(cyclopropylmethyl)-3-(5-(1-(4-(trifluoromethyl)benzyl)-1H-pyrazol-4-yl)-1H-indol-3-yl)urea] | 200 to 1000
CNC(=O)Nc1c[nH]c2ccc(-c3ccc(C4(C#N)CC4)cc3)cc12 [Compound 121, 1-{5-[4-(1-cyanocyclopropyl)phenyl]-1H-indol-3-yl}-3-methylurea] | 5000 to 100000
CCc1ccc(-n2cc(-c3ccc4[nH]cc(NC(=O)NC5CCOC5)c4c3)cn2)cc1 (centres unmarked) [Compound 124, 1-(5-(1-(4-ethylphenyl)-1H-pyrazol-4-yl)-1H-indol-3-yl)-3-(tetrahydrofuran-3-yl)urea] | 200 to 1000
CCc1ccc(-n2cc(-c3ccc4[nH]cc(NC(=O)NC5CCC5)c4c3)cn2)cc1 [Compound 126, 1-cyclobutyl-3-(5-(1-(4-ethylphenyl)-1H-pyrazol-4-yl)-1H-indol-3-yl)urea] | 200 to 1000
CCc1ccc(-n2cc(-c3ccc4[nH]cc(NC(=O)N5CCN(C(C)=O)CC5)c4c3)cn2)cc1 [Compound 108, 4-acetyl-N-{5-[1-(4-ethylphenyl)-1H-pyrazol-4-yl]-1H-indol-3-yl}piperazine-1-carboxamide] | 1000 to 5000
CCc1ccc(-n2cc(-c3ccc4[nH]cc(NC(=O)NCC(F)(F)F)c4c3)cn2)cc1 [Compound 129, 1-{5-(1-(4-ethylphenyl)-1H-pyrazol-4-yl]-1H-indol-3-yl}-3-(2,2,2-trifluoroethyl)urea] | 40 to 200
CCc1ccc(-n2cc(-c3ccc4[nH]cc(NC(=O)NCC5CC5)c4c3)cn2)cc1 [Compound 128, 1-(cyclopropylmethyl)-3-(5-(1-(4-ethylphenyl)-1H-pyrazol-4-yl)-1H-indol-3-yl)urea] | 200 to 1000
CCc1ccc(-n2cc(-c3ccc4[nH]cc(NC(=O)NC)c4c3)cn2)cc1 [Compound 132, 1-(5-(1-(4-ethylphenyl)-1H-pyrazol-4-yl)-1H-indol-3-yl)-3-methylurea] | 200 to 1000
CNC(=O)Nc1c[nH]c2ccc(-c3cnn(C4CCCC4)c3)cc12 [Compound 123, 1-[5-(1-cyclopentyl-1H-pyrazol-4-yl)-1H-indol-3-yl]-3-methylurea] | 5000 to 100000
CCc1ccc(-n2cc(-c3ccc4[nH]cc(NC(=O)N[C@H]5C[C@H](OC)C5)c4c3)cn2)cc1 [Compound 125, 1-(5-(1-(4-ethylphenyl)-1H-pyrazol-4-yl)-1H-indol-3-yl)-3-((1r,3r)-3-methoxycyclobutyl)urea] | 200 to 1000
CC(=O)N1CCC(NC(=O)Nc2c[nH]c3ccc(-c4cnn(-c5ccc(C(F)(F)F)cc5)c4)cc23)C1 (centres unmarked) [Compound 101, 1-(1-acetylpyrrolidin-3-yl)-3-(5-(1-(4-(trifluoromethyl)phenyl)-1H-pyrazol-4-yl)-1H-indol-3-yl)urea] | 1000 to 5000
CC(C)(O)CNC(=O)Nc1c[nH]c2ccc(-c3cnn(-c4ccc(C(F)(F)F)cc4)c3)cc12 [Compound 102, 1-(2-hydroxy-2-methylpropyl)-3-(5-(1-(4-(trifluoromethyl)phenyl)-1H-pyrazol-4-yl)-1H-indol-3-yl)urea] | 200 to 1000
O=C(NCC1CC1)Nc1c[nH]c2ccc(-c3cnn(-c4ccc(C(F)(F)F)cc4)c3)cc12 [Compound 109, 1-(cyclopropylmethyl)-3-(5-(1-(4-(trifluoromethyl)phenyl)-1H-pyrazol-4-yl)-1H-indol-3-yl)urea] | 200 to 1000
CCc1ccc(-n2cc(-c3ccc4[nH]cc(NC(=O)N5CCCC5)c4c3)cn2)cc1 [Compound 112, N-(5-(1-(4-ethylphenyl)-1H-pyrazol-4-yl)-1H-indol-3-yl)pyrrolidine-1-carboxamide] | 200 to 1000

Structure (SMILES) | EC50 [nM]
CCc1ccc(-n2cc(-c3ccc4[nH]cc(NC(=O)NCC(F)F)c4c3)cn2)cc1 [Compound 127, 1-(2,2-difluoroethyl)-3-(5-(1-(4-ethylphenyl)-1H-pyrazol-4-yl)-1H-indol-3-yl)urea] | 200 to 1000
CNC(=O)Nc1c[nH]c2ccc(-c3cnn(-c4ccccc4)c3)cc12 [Compound 131, 3-methyl-1-[5-(1-phenyl-1H-pyrazol-4-yl)-1H-indol-3-yl]urea] | 1000 to 5000
CNC(=O)Nc1c[nH]c2ccc(-c3cnn(-c4ccccc4Cl)c3)cc12 [Compound 115, 1-{5-[1-(2-chlorophenyl)-1H-pyrazol-4-yl]-1H-indol-3-yl}-3-methylurea] | 1000 to 5000
CNC(=O)Nc1c[nH]c2ccc(-c3cnn(Cc4ccc(C(F)(F)F)cc4)c3)cc12 [Compound 105, 1-methyl-3-(5-(1-(4-(trifluoromethyl)benzyl)-1H-pyrazol-4-yl)-1H-indol-3-yl)urea] | 200 to 1000
CCc1ccc(-n2cc(-c3ccc4[nH]cc(NC(=O)NCC5CCCC5)c4c3)cn2)cc1 [Compound 111, 1-(cyclopentylmethyl)-3-{5-[1-(4-ethylphenyl)-1H-pyrazol-4-yl]-1H-indol-3-yl}urea] | 200 to 1000
O=C(NCC(F)(F)F)Nc1c[nH]c2ccc(-c3cnn(-c4ccc(C(F)(F)F)cn4)c3)cc12 [Compound 107, 1-(2,2,2-trifluoroethyl)-3-(5-(1-(5-(trifluoromethyl)pyridin-2-yl)-1H-pyrazol-4-yl)-1H-indol-3-yl)urea] | 200 to 1000
CCc1ccc(-n2cc(-c3ccc4[nH]cc(NC(=O)N(C)C)c4c3)cn2)cc1 [Compound 119, 3-(5-(1-(4-ethylphenyl)-1H-pyrazol-4-yl)-1H-indol-3-yl)-1,1-dimethylurea] | 200 to 1000
CNC(=O)Nc1c[nH]c2ccc(-c3cccc(C4CC4)c3)cc12 [Compound 122, 1-[5-(3-cyclopropylphenyl)-1H-indol-3-yl]-3-methylurea] | 1000 to 5000
O=C(NCC1CC1)Nc1c[nH]c2ccc(-c3cnn(-c4ccc(C(F)(F)F)cn4)c3)cc12 [Compound 106, 1-(cyclopropylmethyl)-3-(5-(1-(5-(trifluoromethyl)pyridin-2-yl)-1H-pyrazol-4-yl)-1H-indol-3-yl)urea] | 200 to 1000
CNC(=O)Nc1c[nH]c2ccc(-c3cnn(-c4ccc(C(F)(F)F)cc4)c3)cc12 [Compound 118, 1-methyl-3-(5-(1-(4-(trifluoromethyl)phenyl)-1H-pyrazol-4-yl)-1H-indol-3-yl)urea] | 200 to 1000
O=C(NCC(F)(F)F)Nc1c[nH]c2ccc(-c3cnn(-c4ccc(C(F)(F)F)cc4)c3)cc12 [Compound 104, 1-(2,2,2-trifluoroethyl)-3-(5-(1-(4-(trifluoromethyl)phenyl)-1H-pyrazol-4-yl)-1H-indol-3-yl)urea] | 200 to 1000
CNC(=O)Nc1c[nH]c2ccc(-c3cnn(-c4cccc(Cl)c4)c3)cc12 [Compound 113, 1-{5-[1-(3-chlorophenyl)-1H-pyrazol-4-yl]-1H-indol-3-yl}-3-methylurea] | 200 to 1000
CCc1ccc(-n2cc(-c3ccc4[nH]cc(NC(=O)NCCOC)c4c3)cn2)cc1 [Compound 110, 1-(5-(1-(4-ethylphenyl)-1H-pyrazol-4-yl)-1H-indol-3-yl)-3-(2-methoxyethyl) urea] | 200 to 1000
CNC(=O)Nc1c[nH]c2ccc(-c3ccnc(N4CCCCC4)c3)cc12 [Compound 117, 3-methyl-1-{5-[2-(piperidin-1-yl)pyridin-4-yl]-1H-indol-3-yl}urea] | 5000 to 100000
CCc1ccc(-n2cc(-c3ccc4[nH]cc(NC(=O)NC(C)C)c4c3)cn2)cc1 [Compound 130, 1-(5-(1-(4-ethylphenyl)-1H-pyrazol-4-yl)-1H-indol-3-yl)-3-isopropylurea] | 200 to 1000
CNC(=O)Nc1c[nH]c2ccc(-c3cnn(-c4cccc(C#N)c4)c3)cc12 [Compound 116, 1-{5-[1-(3-cyanophenyl)-1H-pyrazol-4-yl]-1H-indol-3-yl}-3-methylurea] | 5000 to 100000

Reference: patent US12152018B2, “Compounds and compositions for treating conditions associated with STING activity” (IFM Due, Inc., priority 2021, dated 2024)
